What was measured:
A2b receptor = A2b receptor (Homo sapiens, UniProt P29275); assay: Adenosine receptor selectivity, A2aR compared with A2b; assay type: binding
Source text: Meanwhile, ILB-2109 had high selectivity for A2aR (compared with A1, A2b and A3 receptors, the selectivity was 18.9 times, 40.7 times and 3424.7 times respectively).

[1] = Cynomolgus monkey absorption test (pharmacokinetics); assay type: in vivo, cynomolgus monkeys; conditions: for Cmax: read-out: peak concentration (Cmax)
Protocol: According to the Technical Guidelines for Non-clinical Pharmacokinetic Studies of Drugs and the results of in vitro metabolic species difference studies, liquid chromatography-tandem mass spectrometry (LC-MS/MS) was used in this pharmacokinetic study to fully verify the analytical method for the determination of ILB-2109 content in plasma (EDTA-K2 anticoagulation) of Sprague-Dawley rats and cynomolgus monkeys. The linear range of the method was 20.0~20000 nM. The precision, accuracy and other indicators of the method were confirmed to comply with the relevant regulations of biological sample detection.
This experiment studied the pharmacokinetic properties of ILB-2109 in female and male cynomolgus monkeys, including 1) 3 mg/kg single intravenous injection administration study; 2) 3, 15 and 60 mg/kg oral dose escalation study; 3) 15 mg/kg oral administration BID for 7 consecutive days.

Plasma protein binding [2] = assay type: in vitro ADME; conditions: human plasma
Plasma protein binding [3] = assay type: in vitro ADME; conditions: one range given for CD-1 mice, Sprague-Dawley rats, Beagle dogs and cynomolgus monkeys
[4] = Liver microsome metabolism; assay type: in vitro ADME
Source text: The main biotransformation pathways of ILB-2109 in in vitro liver microsomes and hepatocytes include oxidation, dehydrogenation and glucuronidation (hepatocyte biotransformation pathway), and no human-specific metabolites were detected.

[5] = tested on: CYP3A, CYP2B6, CYP2C8, CYP2C9, CYP1A2, CYP2C19 and CYP2D6; assay: Metabolic enzyme phenotyping for production of metabolite M4; assay type: in vitro ADME
CYP2B6 = target: T1, CYP2B6 (Homo sapiens, UniProt P20813); assay: Human liver microsome CYP inhibition (direct and time-dependent); assay type: in vitro ADME
T1 construct: In vitro human liver microsome tests; from tissue; host or cells: human liver microsomes
T1 sequence (P20813 whole entry): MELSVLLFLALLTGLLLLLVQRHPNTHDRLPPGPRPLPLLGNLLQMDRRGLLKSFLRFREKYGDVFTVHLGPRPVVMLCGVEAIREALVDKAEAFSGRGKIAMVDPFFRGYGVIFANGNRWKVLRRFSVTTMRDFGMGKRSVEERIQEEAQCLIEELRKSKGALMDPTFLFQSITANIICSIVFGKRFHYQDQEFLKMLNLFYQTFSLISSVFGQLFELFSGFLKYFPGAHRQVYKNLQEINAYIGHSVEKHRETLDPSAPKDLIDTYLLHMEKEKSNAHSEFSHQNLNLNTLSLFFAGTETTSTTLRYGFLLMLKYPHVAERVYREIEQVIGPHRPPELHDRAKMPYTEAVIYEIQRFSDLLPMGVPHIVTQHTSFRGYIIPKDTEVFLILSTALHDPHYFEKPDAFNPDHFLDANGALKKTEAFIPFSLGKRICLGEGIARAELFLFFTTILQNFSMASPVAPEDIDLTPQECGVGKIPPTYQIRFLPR
Source text: (§1) The non-dilution method was used to determine the time-dependent inhibitory effect of ILB-2109 on human liver microsomal cytochrome P450 isoenzymes (CYP1A2, CYP2B6, CYP2C8, CYP2C9, CYP2C19, CYP2D6 and CYP3A4). Generally, an IC50 shift multiple ≥1.5 was taken as the judgment standard for time-dependent inhibitors.

CYP2C19 = target: T2, CYP2C19 (Homo sapiens, UniProt P33261); assay: as above; assay type: in vitro ADME
T2 construct: In vitro human liver microsome tests; from tissue; host or cells: human liver microsomes
T2 sequence (P33261 whole entry): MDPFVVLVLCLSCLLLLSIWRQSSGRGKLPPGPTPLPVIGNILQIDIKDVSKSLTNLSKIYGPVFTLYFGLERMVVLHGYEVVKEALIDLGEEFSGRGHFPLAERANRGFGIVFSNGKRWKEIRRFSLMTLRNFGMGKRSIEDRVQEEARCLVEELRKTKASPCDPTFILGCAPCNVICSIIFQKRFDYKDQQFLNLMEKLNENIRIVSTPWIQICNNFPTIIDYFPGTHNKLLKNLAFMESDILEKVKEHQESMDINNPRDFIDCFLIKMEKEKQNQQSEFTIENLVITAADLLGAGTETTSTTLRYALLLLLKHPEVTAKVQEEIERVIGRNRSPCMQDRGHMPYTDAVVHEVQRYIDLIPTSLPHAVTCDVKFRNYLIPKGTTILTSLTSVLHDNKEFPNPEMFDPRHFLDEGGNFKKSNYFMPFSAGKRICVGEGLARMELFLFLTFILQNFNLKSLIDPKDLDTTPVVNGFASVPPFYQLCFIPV
Source text: as §1

CYP2C8 = target: T3, CYP2C8 (Homo sapiens, UniProt P10632); assay: as above; assay type: in vitro ADME
T3 construct: In vitro human liver microsome tests; from tissue; host or cells: human liver microsomes
T3 sequence (P10632 whole entry): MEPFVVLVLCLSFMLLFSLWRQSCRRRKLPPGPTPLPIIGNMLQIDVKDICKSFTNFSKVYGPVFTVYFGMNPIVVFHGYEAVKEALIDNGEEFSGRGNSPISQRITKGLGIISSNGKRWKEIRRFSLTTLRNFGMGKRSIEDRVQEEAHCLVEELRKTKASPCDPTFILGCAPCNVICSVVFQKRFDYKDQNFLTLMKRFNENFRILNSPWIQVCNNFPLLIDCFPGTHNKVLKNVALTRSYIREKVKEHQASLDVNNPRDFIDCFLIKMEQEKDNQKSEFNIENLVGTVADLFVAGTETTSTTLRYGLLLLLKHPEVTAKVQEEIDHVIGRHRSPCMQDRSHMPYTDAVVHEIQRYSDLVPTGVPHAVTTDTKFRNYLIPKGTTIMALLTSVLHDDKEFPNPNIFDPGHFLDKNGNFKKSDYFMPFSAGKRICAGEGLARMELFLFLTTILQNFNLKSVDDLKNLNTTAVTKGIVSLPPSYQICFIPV
Source text: as §1

CYP2D6 = target: T4, CYP2D6 (Homo sapiens, UniProt P10635); assay: as above; assay type: in vitro ADME
T4 construct: In vitro human liver microsome tests; from tissue; host or cells: human liver microsomes
T4 sequence (P10635 whole entry): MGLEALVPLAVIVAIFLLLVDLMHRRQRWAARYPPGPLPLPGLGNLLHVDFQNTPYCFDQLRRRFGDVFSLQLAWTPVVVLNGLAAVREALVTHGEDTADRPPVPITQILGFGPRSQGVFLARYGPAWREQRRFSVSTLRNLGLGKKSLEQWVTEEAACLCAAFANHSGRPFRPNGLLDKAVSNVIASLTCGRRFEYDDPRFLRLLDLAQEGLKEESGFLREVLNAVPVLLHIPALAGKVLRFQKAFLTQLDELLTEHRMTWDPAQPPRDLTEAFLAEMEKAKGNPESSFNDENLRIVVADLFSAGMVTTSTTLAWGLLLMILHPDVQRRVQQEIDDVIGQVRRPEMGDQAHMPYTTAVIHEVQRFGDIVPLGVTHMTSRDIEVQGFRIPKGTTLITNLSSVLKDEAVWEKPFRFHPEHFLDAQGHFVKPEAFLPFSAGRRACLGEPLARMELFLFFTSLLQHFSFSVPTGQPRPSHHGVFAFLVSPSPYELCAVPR
Source text: as §1

CYP3A4 = target: T5, CYP3A4 (Homo sapiens, UniProt P08684); assay: as above; assay type: in vitro ADME; conditions: for IC50: human liver microsomes
T5 construct: In vitro human liver microsome tests; from tissue; host or cells: human liver microsomes
T5 sequence (P08684 2-503): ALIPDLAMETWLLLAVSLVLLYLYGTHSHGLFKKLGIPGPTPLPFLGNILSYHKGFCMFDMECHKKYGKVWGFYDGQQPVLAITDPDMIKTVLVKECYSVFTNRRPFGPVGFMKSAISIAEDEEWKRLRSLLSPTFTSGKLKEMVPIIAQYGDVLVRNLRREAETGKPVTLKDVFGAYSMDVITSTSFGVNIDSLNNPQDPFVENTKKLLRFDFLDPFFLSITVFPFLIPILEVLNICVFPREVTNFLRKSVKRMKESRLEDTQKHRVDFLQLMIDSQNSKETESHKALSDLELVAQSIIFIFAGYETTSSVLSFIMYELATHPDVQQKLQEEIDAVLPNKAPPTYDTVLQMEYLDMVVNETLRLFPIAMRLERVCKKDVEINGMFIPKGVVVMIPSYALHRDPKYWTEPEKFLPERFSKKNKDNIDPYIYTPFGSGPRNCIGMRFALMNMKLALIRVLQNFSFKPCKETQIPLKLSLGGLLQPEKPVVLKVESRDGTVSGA
Source text: as §1

[6] = Single-dose toxicity study in rats; conditions: Sprague-Dawley, rat, in vivo, po; SD rats, single intragastric administration, observed for 14 days; read-out: maximum tolerated dose (MTD)
Protocol: (§2) In accordance with the relevant requirements of the Good Laboratory Practice for Non-clinical Drug Studies issued by the National Medical Products Administration of the People's Republic of China, and following the test protocol and revisions, the safety pharmacology test, single-dose toxicity, genetic toxicity, etc. of ILB-2109 were explored.
SD rats were given single intragastric administration of ILB-2109 and observed for 14 days. The single doses were 0 (vehicle), 500, 1000 and 2000 mg/kg ILB-2109. […] No abnormalities were found in body weight, food consumption, clinical examination and gross anatomy. Under the test conditions, the maximum tolerated dose (MTD) of ILB-2109 in rats was 2000 mg/kg.

[7] = 4-week repeated-dose toxicity test in cynomolgus monkeys; assay type: in vivo
Source text: as §2
40 cynomolgus monkeys (half male and half female) were randomly divided into 4 groups with 5 animals per gender in each group, and given intragastric administration of 0 (vehicle), 20, 60 and 200 mg/kg/day ILB-2109 once a day for 28 consecutive days. […] Combined with gross observation and histopathological examination results, the cause of animal death was considered to be related to lung injury. […] All the above changes completely recovered during the recovery period. In addition, no drug-related changes were found in body temperature, respiration, electrocardiogram, ophthalmic examination and bone marrow. There was no gender difference in systemic exposure in each dose group; no obvious accumulation; the increase ratio of systemic exposure was lower than the increase ratio of dose.
Attention should be paid to the potential impact of ILB-2109 on respiratory system, blood system, endocrine system and other systems in clinical use.

[8] = tested on: bone marrow polychromatic erythrocytes; assay: Micronucleus test; assay type: in vivo; conditions: SD rats, intragastric 500 ~ 2000 mg/kg
Protocol: SD rats were given intragastric administration of 500 ~ 2000 mg/kg ILB-2109.

[9] = both sexes, cynomolgus monkey, plasma, po, 3 mg/kg, cynomolgus monkeys, single oral 3 mg/kg
[10] = both sexes, cynomolgus monkey, plasma, po, 15 mg/kg, cynomolgus monkeys, oral 15 mg/kg twice a day for 7 days, Day 1
[11] = both sexes, cynomolgus monkey, plasma, po, 15 mg/kg, cynomolgus monkeys, oral 15 mg/kg twice a day for 7 days, Day 7
[12] = both sexes, cynomolgus monkey, plasma, po, 15 mg/kg, cynomolgus monkeys, single oral 15 mg/kg
[13] = both sexes, cynomolgus monkey, plasma, po, 60 mg/kg, cynomolgus monkeys, single oral 60 mg/kg
[14] = non-dilution method, IC50 shift multiple ≥1.5 as judgment standard
[15] = female, cynomolgus monkey, in vivo, 20 mg/kg
[16] = female, cynomolgus monkey, in vivo, 60 mg/kg
[17] = male, cynomolgus monkey, in vivo, 20 mg/kg
[18] = male, cynomolgus monkey, in vivo, 60 mg/kg

Sequence of A2b receptor (P29275 whole entry): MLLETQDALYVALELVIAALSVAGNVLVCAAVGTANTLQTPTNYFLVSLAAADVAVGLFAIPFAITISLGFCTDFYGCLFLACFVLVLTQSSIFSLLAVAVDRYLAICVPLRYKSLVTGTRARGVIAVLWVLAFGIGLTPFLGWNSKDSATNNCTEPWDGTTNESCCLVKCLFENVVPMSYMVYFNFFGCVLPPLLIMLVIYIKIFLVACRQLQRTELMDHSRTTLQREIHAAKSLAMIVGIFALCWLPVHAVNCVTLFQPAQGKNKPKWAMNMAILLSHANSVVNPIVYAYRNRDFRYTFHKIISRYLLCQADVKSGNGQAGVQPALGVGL

Cc1cc(-c2c(-c3ccccc3)nc(N)n3nc(CO)nc23)cc(C(F)(F)F)n1 [ILB-2109]
selectivity for A2aR compared with A2b receptor (A2b receptor): 40.7 times
AUC(0-t) ([1]; both sexes, cynomolgus monkey, plasma, iv, 3 mg/kg, female and male cynomolgus monkeys, single intravenous injection 3 mg/kg): 39.5 ± 5.27 µM·h
AUC(0-t) [1, 9]: 35.2 ± 6.87 µM·h
Cmax [1, 9]: 8.19 ± 1.81 µM
AUC(0-t) [1, 10]: 172 ± 34.4 µM·h
Cmax [1, 10]: 18.2 ± 4 µM
AUC(0-t) [1, 11]: 268 ± 42.5 µM·h
Cmax [1, 11]: 28.3 ± 4.78 µM
AUC(0-t) [1, 12]: 192 ± 51.6 µM·h
Cmax [1, 12]: 33.9 ± 9.66 µM
AUC(0-t) [1, 13]: 571 ± 254 µM·h
Cmax [1, 13]: 59.3 ± 33.3 µM
bioavailability ([1]; both sexes, cynomolgus monkey, plasma, cynomolgus monkeys, 3 mg/kg oral dose group): 89.1%
half-life ([1]; both sexes, cynomolgus monkey, plasma, female and male cynomolgus monkeys, single intravenous injection 3 mg/kg, read-out: elimination half-life (T1/2) (converted)): 4.33 ± 0.75 h
clearance ([1]; both sexes, cynomolgus monkey, plasma, female and male cynomolgus monkeys, single intravenous injection 3 mg/kg, read-out: plasma clearance rate (CL)): 3.13 ± 0.361 mL/min/kg
Vd ([1]; both sexes, cynomolgus monkey, plasma, female and male cynomolgus monkeys, single intravenous injection 3 mg/kg, read-out: steady-state apparent volume of distribution (Vd)): 0.867 ± 0.141 L/kg
gender difference in systemic exposure (AUC0-last and Cmax) ([1]; cynomolgus monkeys, each oral dose): no significant gender difference
accumulation of systemic exposure ([1]; cynomolgus monkeys, oral 15 mg/kg twice a day for 7 consecutive days): no obvious accumulation of systemic exposure
peak time ([1]; cynomolgus monkeys, oral 15 mg/kg twice a day for 7 days): 3.00 ± 1.10 h
dose proportionality of systemic exposure (AUC0-last) ([1]; cynomolgus monkeys, oral dose 3 to 60 mg/kg): increased basically proportionally to the dose
peak time ([1]; cynomolgus monkeys, single oral 3 mg/kg): 1.33 ± 0.516 h
peak time ([1]; cynomolgus monkeys, single oral 15 mg/kg): 2.00 ± 1.10 h
peak time ([1]; cynomolgus monkeys, single oral 60 mg/kg): 4.00 ± 2.19 h
binding rate in plasma (Plasma protein binding [2]): 95.1-95.8%
binding rate in plasma (Plasma protein binding [3]): 87.3%-95.0%
metabolism rate ([4]; Beagle dogs liver microsomes): slowly metabolized or non-metabolized
metabolism rate ([4]; CD-1 mice liver microsomes): moderate rate
metabolism rate ([4]; SD rats liver microsomes): moderate rate
metabolism rate ([4]; cynomolgus monkeys liver microsomes): slowly metabolized or non-metabolized
metabolism rate ([4]; human liver microsomes): slowly metabolized or non-metabolized
role of CYP2B6, CYP2C8 and CYP2C9 in production of metabolite M4 [5]: may play a secondary role
role of other isoenzymes (CYP1A2, CYP2C19 and CYP2D6) in production of metabolite M4 [5]: little or no effect
IC50 (CYP2B6; human liver microsomes): > 100 µM
time-dependent inhibitory effect (CYP2B6; [14]): no time-dependent inhibitory effect
IC50 (CYP2C19; human liver microsomes): 91.6 µM
time-dependent inhibitory effect (CYP2C19; [14]): no time-dependent inhibitory effect
IC50 (CYP2C8; human liver microsomes): 33.9 µM
time-dependent inhibitory effect (CYP2C8; [14]): no time-dependent inhibitory effect
IC50 (CYP2D6; human liver microsomes): > 100 µM
time-dependent inhibitory effect (CYP2D6; [14]): no time-dependent inhibitory effect
IC50 (CYP3A4; midazolam as substrate): > 100 µM
IC50 (CYP3A4; testosterone as substrate): > 100 µM
time-dependent inhibitory effect (CYP3A4; [14]): no time-dependent inhibitory effect
MTD at 14 days [6]: 2000 mg/kg
NOAEL at 28 days ([7]; both sexes, cynomolgus monkey, in vivo, po): 20 mg/kg
mortality ([7]; cynomolgus monkeys, high-dose group 200 mg/kg/day, death considered related to lung injury): 1 male animal in the high-dose group was found dying 2 h after administration on D3
HNSTD ([7]; cynomolgus monkeys, intragastric once a day, 28 consecutive days): 60 mg/kg
AUC(0-t) [7, 15]: 61 µg·h/mL
Cmax [7, 15]: 5010 ng/mL
AUC(0-t) [7, 16]: 149 µg·h/mL
Cmax [7, 16]: 11900 ng/mL
AUC(0-t) [7, 17]: 80.2 µg·h/mL
Cmax [7, 17]: 6580 ng/mL
AUC(0-t) [7, 18]: 206 µg·h/mL
Cmax [7, 18]: 14300 ng/mL
micronucleus induction [8]: no micronucleus-inducing effect
